Data published in patent US20020169147A1, “Compositions for controlling pests” (priority 2001, published 2002).

System: Dermatophagoides pteronyssinus
Assay: Efficacy against mites (ticking in plastic dish, rated under a stereomicroscope)
Assay type: in vivo
Conditions: 0.4 ml applied to ticking; mixed population; rated after 2 hours, 1, 3 and 7 days; sum of three experimental units after end of experiment; control isopropanol/water = 9.0
Text: A mixed population of the species Dermatophagoides pteronyssinus is used.
The upper rim of a plastic dish (Ø 7 cm, height 3 cm) is provided with glue and then covered with a piece of ticking of the same diameter. A spatula-tip full from a culture dish containing mites and feed (ground Tetramin) is placed on the ticking.
The dish is then placed on an inverted Petri dish in a plastic container (33×22 cm, height 6.5 cm), containing saturated sodium chloride solution, and the container is closed with a lid.
The next day, 0.4 ml of the composition of the invention is applied to the material.
The set-up is illuminated by daylight, the temperature is 24-26° C., and the relative atmospheric humidity within the closed plastic container is approximately 75%.
After 2 hours, 1, 3, and 7 days the state of the mites in comparison with a control treated only with isopropanol/water (1:1) is rated under a stereomicroscope (3=numerous mites, 0=no mites). Direct counting is impossible since dead animals are difficult to see.
If required (control, ineffective products), more feed is added.
Three experimental units are set up for each experiment, and after the end of the experiment the sum of the scores is recorded.

| SMILES | sum of the scores of the state of the mites (0 = no mites, 9 = numerous mites) |
| --- | --- |
| CC(O)CO (stereo not shown) [5.0% Propylene glycol, Propylene glycol] | 9.0 |
| CCCCCCCCCCCCOS(=O)(=O)[O-].[Na+] [1.0% Na lauryl sulphate, Na lauryl sulphate] | 9.0 |
| Oc1ccccc1-c1ccccc1 [0.1% o-Phenylphenol, o-Phenylphenol] | 9.0 |
| O=C(OCc1ccccc1)c1ccccc1 [5.0% Benzyl benzoate, Benzyl benzoate] | 9.0 |
